Measurements reported in the supplement of paper PMC10307832.

What was measured:
Assay in all cases: relative viability (nuclei count vs DMSO), 5 days (fraction); higher = more cells survive
Motesanib + Palbociclib = compound: CC1(C)CNc2cc(NC(=O)c3cccnc3NCc3ccncc3)ccc21 [Motesanib] + CC(=O)c1c(C)c2cnc(Nc3ccc(N4CCNCC4)cn3)nc2n(C2CCCC2)c1=O [Palbociclib] (partner 0.5 µM)
How it was run: (§1)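 Relative viability equals treated-well nuclei counts divided by vehicle-well nuclei counts. Counts came from 4× images of lung cancer cell lines grown in 1536-well plates for 5 days after pin-tool dosing on the day after seeding. Dosing used one drug alone or a fixed anchor-drug dose plus five library-drug doses (not always all listed) in √10 steps, and values are medians of duplicate plates.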

[1] = compound: C[C@@]1(C(=O)Nc2ccc(F)nc2)CCCN1c1nc(Nc2cc(C3CC3)n[nH]2)c2cccn2n1 + CC1(C)CCC(c2ccc(Cl)cc2)=C(CN2CCN(c3ccc(C(=O)NS(=O)(=O)c4ccc(N[C@H](CCN5CCOCC5)CSc5ccccc5)c(S(=O)(=O)C(F)(F)F)c4)cc3)CC2)C1 [Navitoclax] (partner 0.5 µM)
How it was run: as §1

[2] = compound: C[C@@]1(C(=O)Nc2ccc(F)nc2)CCCN1c1nc(Nc2cc(C3CC3)n[nH]2)c2cccn2n1 + CS(=O)(=O)N1CCN(Cc2cc3nc(-c4cccc5[nH]ncc45)nc(N4CCOCC4)c3s2)CC1 [Pictilisib] (partner 1 µM)
How it was run: as §1

[3] = compound: C[C@@]1(C(=O)Nc2ccc(F)nc2)CCCN1c1nc(Nc2cc(C3CC3)n[nH]2)c2cccn2n1 + Cc1nc(Nc2ncc(C(=O)Nc3c(C)cccc3Cl)s2)cc(N2CCN(CCO)CC2)n1 [Dasatinib] (partner 0.075 µM)
How it was run: as §1

UMC-11 was tested. Which relative viability (Motesanib + Palbociclib; first compound 0.01 µM) did it give?
Its relative viability is 0.317.

And the relative viability (Motesanib + Palbociclib; first compound 0.03162 µM)?
Its relative viability is 0.302.

What about the relative viability (Motesanib + Palbociclib; first compound 0.1 µM) of the same cell line?
The relative viability was 0.314.

And the relative viability (Motesanib + Palbociclib; first compound 0.3162 µM)?
Its relative viability is 0.394.

What about the relative viability (Motesanib + Palbociclib; first compound 1 µM) of the same cell line?
The relative viability was 0.347.

What about the relative viability ([1]; first compound 0.04 µM) of the same cell line?
Its relative viability is 0.365.

What about the relative viability ([1]; first compound 0.1265 µM) of the same cell line?
The relative viability was 0.293.

What about the relative viability ([1]; first compound 0.4 µM) of the same cell line?
Its relative viability is 0.249.

And the relative viability ([1]; first compound 1.265 µM)?
Its relative viability is 0.269.

And the relative viability ([2]; first compound 0.04 µM)?
The relative viability was 0.776.

And the relative viability ([2]; first compound 0.1265 µM)?
Its relative viability is 0.868.

And the relative viability ([2]; first compound 0.4 µM)?
The relative viability was 0.805.

What about the relative viability ([2]; first compound 1.265 µM) of the same cell line?
Its relative viability is 0.723.

And the relative viability ([3]; first compound 0.04 µM)?
The relative viability was 0.478.

And the relative viability ([3]; first compound 0.1265 µM)?
Its relative viability is 0.471.

And the relative viability ([3]; first compound 0.4 µM)?
The relative viability was 0.399.

And the relative viability ([3]; first compound 1.265 µM)?
Its relative viability is 0.278.
